Test results published in patent US11618772B2 (Kineta Chronic Pain, LLC, priority 2014, dated 2023).

Compound: C[C@@H](O)[C@@H]1NC(=O)[C@@H]2CSSC[C@@H](C(=O)N[C@@H](Cc3ccc(O)cc3)C(N)=O)NC(=O)[C@H](CCC(N)=O)NC(=O)[C@H](Cc3ccc(O)c(I)c3)NC(=O)[C@H](CCCNC(N)=O)NC(=O)[C@H](CSSC[C@H](NC(=O)CN)C(=O)N2)NC(=O)[C@H](CCCNC(=N)N)NC(=O)[C@@H]2CCCN2C(=O)[C@H](CC(=O)O)NC1=O [CSP-4-NH2, GCCTDPRCX11X12QCY-amide]
- stability in human plasma (Citrate): increased stability compared to CSP-4
